Values quoted from earlier work as cited in US20030198597A1, “Novel macrocyclic activatible magnetic resonance imaging contrast agents” (priority 2002, published 2003).

Conditions: thermodynamic stability of the Gd3+ chelate complex; background statement

stability constant (K) / formation constant, logK	SMILES
22.4	O=C([O-])CN(CCN(CC(=O)[O-])CC(=O)[O-])CCN(CC(=O)[O-])CC(=O)[O-].[Gd+3] [Gd(DTPA)^2−]
28.5	O=C([O-])CN1CCN(CC(=O)[O-])CCN(CC(=O)[O-])CCN(CC(=O)[O-])CC1.[Gd+3] [Gd-DOTA]
